ChEMBL document CHEMBL4033703, “Novel delta opioid receptor agonists with oxazatricyclodecane structure showing potent agonistic activities” (Bioorg Med Chem Lett, 2017)

Legend:
[1] = target: T1, Mu-type opioid receptor (Homo sapiens, UniProt P35372); test: Displacement of [3H]DAMGO from human mu opioid receptor expressed in CHO cells; format: cell-based
[2] = target: T2, Kappa-type opioid receptor (Homo sapiens, UniProt P41145); test: Displacement of [3H]U-69,593 from human kappa opioid receptor expressed in CHO cells; format: cell-based
T2 sequence (P41145 whole entry): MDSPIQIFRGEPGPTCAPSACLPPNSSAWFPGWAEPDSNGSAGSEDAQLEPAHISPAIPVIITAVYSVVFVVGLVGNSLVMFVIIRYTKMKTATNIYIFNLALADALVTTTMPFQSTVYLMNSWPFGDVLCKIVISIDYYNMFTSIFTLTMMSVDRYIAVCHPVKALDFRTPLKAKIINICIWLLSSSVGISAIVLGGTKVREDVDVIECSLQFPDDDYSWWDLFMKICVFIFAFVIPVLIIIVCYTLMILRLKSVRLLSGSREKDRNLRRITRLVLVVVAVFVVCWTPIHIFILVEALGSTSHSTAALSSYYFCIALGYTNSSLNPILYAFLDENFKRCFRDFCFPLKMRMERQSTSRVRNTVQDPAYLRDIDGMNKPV

[3] = target: T2, Kappa-type opioid receptor; test: Agonist activity at human kappa opioid receptor expressed in CHO cells assessed as inhibition of forskolin-induced cAMP accumulation at 10 uM after 30 mins by Eu-cAMP tracer based TR-FRET assay relative to U-69,593; format: functional, cell-based
[4] = target: T1, Mu-type opioid receptor; test: Agonist activity at human mu opioid receptor expressed in CHO cells assessed as inhibition of forskolin-induced cAMP accumulation after 30 mins by Eu-cAMP tracer based TR-FRET assay; format: functional, cell-based
[5] = target: T3, Delta-type opioid receptor (Homo sapiens, UniProt P41143); test: Agonist activity at human delta opioid receptor expressed in CHO cells assessed as inhibition of forskolin-induced cAMP accumulation after 30 mins by Eu-cAMP tracer based TR-FRET assay; format: functional, cell-based
T3 sequence (P41143 whole entry): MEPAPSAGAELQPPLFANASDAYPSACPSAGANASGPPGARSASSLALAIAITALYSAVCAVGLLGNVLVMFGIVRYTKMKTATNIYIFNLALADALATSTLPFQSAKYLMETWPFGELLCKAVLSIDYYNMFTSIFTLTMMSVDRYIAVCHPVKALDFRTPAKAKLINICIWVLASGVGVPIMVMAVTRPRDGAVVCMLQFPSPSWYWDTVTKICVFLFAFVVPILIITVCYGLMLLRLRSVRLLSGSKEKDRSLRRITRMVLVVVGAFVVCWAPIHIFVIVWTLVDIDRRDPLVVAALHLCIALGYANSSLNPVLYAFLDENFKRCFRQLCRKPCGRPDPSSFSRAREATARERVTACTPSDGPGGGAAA

[6] = target: T3, Delta-type opioid receptor; test: Agonist activity at human delta opioid receptor expressed in CHO cells assessed as inhibition of forskolin-induced cAMP accumulation after 30 mins by Eu-cAMP tracer based TR-FRET assay relative to SNC80; format: functional, cell-based
[7] = target: T3, Delta-type opioid receptor; test: Displacement of [3H]DPDPE from human delta opioid receptor expressed in CHO cells; format: cell-based
[8] = target: T1, Mu-type opioid receptor; test: Agonist activity at human mu opioid receptor expressed in CHO cells assessed as inhibition of forskolin-induced cAMP accumulation after 30 mins by Eu-cAMP tracer based TR-FRET assay relative to DAMGO; format: functional, cell-based
[9] = target: Kappa-type opioid receptor (Cavia porcellus, UniProt P41144); test: Displacement of [3H]U-69,593 from kappa opioid receptor in guinea pig cerebellum membrane; format: cell membranes
Sequence of Kappa-type opioid receptor (Cavia porcellus, UniProt P41144) (P41144 whole entry): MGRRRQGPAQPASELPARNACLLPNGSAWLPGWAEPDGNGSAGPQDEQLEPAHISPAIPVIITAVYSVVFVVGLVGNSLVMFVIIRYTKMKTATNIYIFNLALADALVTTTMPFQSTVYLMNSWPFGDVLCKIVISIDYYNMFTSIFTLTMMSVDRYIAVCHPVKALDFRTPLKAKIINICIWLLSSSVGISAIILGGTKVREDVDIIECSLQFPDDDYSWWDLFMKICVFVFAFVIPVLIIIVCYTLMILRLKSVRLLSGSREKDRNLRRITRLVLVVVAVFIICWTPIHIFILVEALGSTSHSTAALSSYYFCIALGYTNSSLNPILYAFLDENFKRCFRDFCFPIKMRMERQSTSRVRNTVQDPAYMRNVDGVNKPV

[10] = organism: Mus musculus; test: Selectivity ratio of Ki for mu opioid receptor in mouse whole brain without cerebellum to Ki for delta opioid receptor in mouse whole brain without cerebellum
[11] = target: Mu-type opioid receptor (Mus musculus, UniProt P42866); test: Displacement of [3H]DAMGO from mu opioid receptor in mouse whole brain without cerebellum membrane
Sequence of Mu-type opioid receptor (Mus musculus, UniProt P42866) (P42866 whole entry): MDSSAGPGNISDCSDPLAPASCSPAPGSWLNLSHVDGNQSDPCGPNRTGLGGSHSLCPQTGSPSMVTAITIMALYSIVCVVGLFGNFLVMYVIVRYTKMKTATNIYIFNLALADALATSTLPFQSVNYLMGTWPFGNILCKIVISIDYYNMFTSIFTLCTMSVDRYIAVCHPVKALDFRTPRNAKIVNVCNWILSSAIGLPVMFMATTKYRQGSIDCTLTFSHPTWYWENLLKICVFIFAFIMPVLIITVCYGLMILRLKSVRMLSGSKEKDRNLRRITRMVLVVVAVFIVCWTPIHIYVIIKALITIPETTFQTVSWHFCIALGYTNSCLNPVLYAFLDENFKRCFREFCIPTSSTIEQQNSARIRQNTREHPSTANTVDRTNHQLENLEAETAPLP

[12] = target: T1, Mu-type opioid receptor; test: Agonist activity at human mu opioid receptor expressed in CHO cells assessed as inhibition of forskolin-induced cAMP accumulation at 10 uM after 30 mins by Eu-cAMP tracer based TR-FRET assay relative to DAMGO; format: functional, cell-based
[13] = target: Delta-type opioid receptor (Mus musculus, UniProt P32300); test: Displacement of [3H]DPDPE from delta opioid receptor in mouse whole brain without cerebellum membrane
Sequence of Delta-type opioid receptor (Mus musculus, UniProt P32300) (P32300 whole entry): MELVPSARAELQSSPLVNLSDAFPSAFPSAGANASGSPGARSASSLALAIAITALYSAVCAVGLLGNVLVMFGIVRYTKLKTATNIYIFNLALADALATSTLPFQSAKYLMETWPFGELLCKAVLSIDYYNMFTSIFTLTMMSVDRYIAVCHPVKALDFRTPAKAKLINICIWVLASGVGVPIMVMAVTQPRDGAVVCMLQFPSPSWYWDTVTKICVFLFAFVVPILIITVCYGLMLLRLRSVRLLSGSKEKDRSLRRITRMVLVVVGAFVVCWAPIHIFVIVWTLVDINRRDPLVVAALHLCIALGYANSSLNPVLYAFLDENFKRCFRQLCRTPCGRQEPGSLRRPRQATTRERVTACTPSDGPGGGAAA

[14] = Selectivity ratio of Ki for kappa opioid receptor in guinea pig cerebellum membrane to Ki for delta opioid receptor in mouse whole brain without cerebellum; format: cell membranes
[15] = target: T2, Kappa-type opioid receptor; test: Agonist activity at human kappa opioid receptor expressed in CHO cells assessed as inhibition of forskolin-induced cAMP accumulation after 30 mins by Eu-cAMP tracer based TR-FRET assay relative to U-69,593; format: functional, cell-based
[16] = target: T2, Kappa-type opioid receptor; test: Agonist activity at human kappa opioid receptor expressed in CHO cells assessed as inhibition of forskolin-induced cAMP accumulation after 30 mins by Eu-cAMP tracer based TR-FRET assay; format: functional, cell-based

T1 sequence (P35372 whole entry): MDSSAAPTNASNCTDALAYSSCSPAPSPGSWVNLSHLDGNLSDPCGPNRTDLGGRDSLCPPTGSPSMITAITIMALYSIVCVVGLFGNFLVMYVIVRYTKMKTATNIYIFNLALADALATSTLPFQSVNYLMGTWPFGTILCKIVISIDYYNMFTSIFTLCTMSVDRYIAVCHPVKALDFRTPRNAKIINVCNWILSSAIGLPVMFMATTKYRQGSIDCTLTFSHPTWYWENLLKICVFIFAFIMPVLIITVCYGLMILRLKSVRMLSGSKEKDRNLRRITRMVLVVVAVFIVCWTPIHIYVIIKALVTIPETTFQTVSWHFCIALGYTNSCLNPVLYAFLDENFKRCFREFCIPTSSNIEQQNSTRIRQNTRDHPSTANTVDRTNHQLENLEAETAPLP

SMILES | Ki [1] [nM] | Ki [2] [nM] | Emax [3] [%] | EC50 [4] [nM] | EC50 [5] [nM] | Emax [6] [%] | Ki [7] [nM] | Emax [8] [%] | Ki [9] [nM] | Ratio Ki [10] | Ki [11] [nM] | Emax [12] [%] | Ki [13] [nM] | Ratio Ki [14] | Emax [15] [%] | EC50 [16] [nM] | ED50 [5] [nM]
O=S(=O)(c1ccccc1)N1C[C@H]2OC34CCC1C2C31CCN(CC2CC2)C4Cc2ccc(O)cc21 (some centres not stated) | 0.308 | 0.658 | 19 | 2.5 | 1.2 | 66 | 0.221 | 54 | – | – | – | – | – | – | – | – | –
O=C(c1ccccc1)N1C[C@H]2OC34CCC1C2C31CCN(CC2CC2)C4Cc2ccc(O)cc21 (some centres not stated) | 0.627 | 1.05 | 2.9 | – | 0.54 | 96 | 0.154 | – | 1.21 | 1.2 | 0.325 | 3.9 | 0.274 | 4.4 | – | – | –
CC(C)CN1CCC23c4cc(O)ccc4CC1C21CCC2C3[C@@H](CN2C(=O)c2ccccc2)O1 (some centres not stated) | – | – | – | – | 3 | 99 | – | – | 6.25 | 5.9 | 4.48 | 15 | 0.76 | 8.2 | 19 | 98 | –
COCCCN1CCC23c4cc(O)ccc4CC1C21CCC2C3[C@@H](CN2C(=O)c2ccccc2)O1 (some centres not stated) | – | – | 23 | 22 | 1.4 | 120 | – | 55 | 20.3 | 11 | 3.94 | – | 0.368 | 55 | – | – | –
CN1CCC23c4cc(O)ccc4CC1C21CCC2C3[C@@H](CN2C(=O)c2ccccc2)O1 (some centres not stated) | – | – | – | 5.9 | 0.43 | 94 | – | 103 | 31.3 | 1.3 | 0.383 | – | 0.301 | 104 | 96 | 50 | –
C=CCN1CCC23c4cc(O)ccc4CC1C21CCC2C3[C@@H](CN2C(=O)c2ccccc2)O1 (some centres not stated) | – | – | 4.2 | – | 0.43 | 73 | – | – | 2.54 | 7.6 | 0.833 | 2.2 | 0.109 | 23 | – | – | –
O=C(c1ccccc1)N1C[C@H]2OC34CCC1C2C31CCN(CCc2ccccc2)C4Cc2ccc(O)cc21 (some centres not stated) | – | – | – | 5.3 | 0.61 | 100 | – | 109 | 34.1 | 1.2 | 0.548 | – | 0.458 | 74 | 56 | 404 | –
COCCCN1CC[C@]23Cc4nc5ccccc5cc4C[C@@]2(O)[C@H]1Cc1ccc(O)cc13 | – | – | 14 | – | – | 95 | – | – | – | – | – | 25 | – | – | – | – | 0.46
Oc1ccc2c(c1)C13CCN(CC4CC4)C(C2)C12CCC1C3[C@@H](CN1Cc1ccccc1)O2 (some centres not stated) | 1.56 | 1.38 | 12 | – | 0.67 | 79 | 0.501 | – | – | – | – | 4.2 | – | – | – | – | –
